Reference: US6962900B2, “Pharmaceutical being used for treating HIV infection, the composition and uses thereof” (priority 2001, dated 2005)
“Also recorded” adds a separate entry of the source. Peptide text beside a SMILES is read from it.

Experiments:
HIV = settings: first and second stages of clinical trials; cited from earlier work
HIV-1 gp160HXB = molecular target: T1, HIV-1 gp160HXB (Human immunodeficiency virus type 1 group M subtype B, UniProt P04578); experiment: cell-cell fusion assay (luciferase reporter, synplasm formation induced by HIV-1 gp160HXB); assay type: cell-based
T1 construct: expressed in transfected cells; host or cells: 293T cells
T1 sequence (P04578 512-856): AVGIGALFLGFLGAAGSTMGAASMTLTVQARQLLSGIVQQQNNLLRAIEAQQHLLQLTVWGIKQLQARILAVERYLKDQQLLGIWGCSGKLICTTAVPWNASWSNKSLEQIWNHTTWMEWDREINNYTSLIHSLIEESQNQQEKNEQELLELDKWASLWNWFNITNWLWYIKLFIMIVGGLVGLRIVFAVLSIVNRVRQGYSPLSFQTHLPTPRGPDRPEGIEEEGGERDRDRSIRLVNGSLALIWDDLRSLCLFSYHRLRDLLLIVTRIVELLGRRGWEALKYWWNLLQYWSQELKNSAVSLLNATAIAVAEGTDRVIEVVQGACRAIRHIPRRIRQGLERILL
From the text: The specific experiment methods are as follows: The T7 promoter was inserted into the pSP64 upstream sequence of the cloning site to assemble a luciferase reporter gene plasmid—Pst7luc. The internal ribozyme entry site (IRES) of encephalomyocarditis virus (CMCV) was linked with the 5′-terminal of luciferase gene as well as the downstream area of T7 promoter. CD4 gene, T7 polymerase gene, and HIV-1 gp160HXB gene were subcloned into the mammalian expression plasmid—PMT3.
In a 10 cm culture dish, the 293T cells were transferred by Calcium Phosphate Method. Equal quantities of gp160HXB gene and T7 polymerase gene were used to transfect the effector cells, and pSP64 and CD4 gene were used to transfect the target cells. The PMT3 plasmid in the absence of gp160HXB or CD4 gene was set as a negative control.
The cells with non-serous DMEM were rinsed, after the DNA precipitate was added. The cells were cultured for 30-40 minutes at 37° C. in 9 ml/dish non-serous DMEM. […]
The solution as a stock solution was put to serial dilution in culture medium before use. […] Two minutes after adding luciferase substrate to the black 96-well culture plate, measure the chemical fluorescence intensity with Spex fluorolog-3 fluorimeter, the emission wavelength being 552 nm and slit breadth being 7 mm. The average and standard deviation were calculated from the three data of each concentration point.

gp41 N-peptide = molecular target: T2, gp41 N-peptide (Human immunodeficiency virus type 1 group M subtype B, UniProt P04578); experiment: stability by melting curve (circular dichroism) of peptide complexed with gp41 N-peptide; assay type: physicochemical, HIV-1
T2 construct: The peptide solution containing Fusonex and gp41 N-peptide (35-70) was measured
T2 sequence (P04578 546-581): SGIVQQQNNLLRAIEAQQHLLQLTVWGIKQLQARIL
Method: This experiment determined the stability of a polypeptide by measuring its melting curve at different temperatures. The experiment was carried out on Aviv 62A DS circular dichroism spectrum apparatus. The temperature range for heating peptide solution was from 20° C. to 95° C.

Compound	toxicity against the spinal cord (HIV)	IC50 (HIV-1 gp160HXB) [nM]	inhibiting activity compared with T-20 (cell fusion induced by HIV-1 gp160HXB) (HIV-1 gp160HXB; at the same concentration, FIG. 5)	stability compared with T-20 (melting curve) (gp41 N-peptide; FIG. 4)	50% melting temperature (gp41 N-peptide; heating 20° C. to 95° C.) [°C]
enfuvirtide	no toxicity against the spinal cord				
CC[C@H](C)[C@H](NC(=O)[C@H](CCC(=O)O)NC(=O)[C@H](CCCNC(=N)N)NC(=O)[C@H](CCC(=O)O)NC(=O)[C@H](Cc1c[nH]c2ccccc12)NC(=O)[C@@H](NC(=O)[C@H](CCC(=O)O)NC(=O)[C@H](Cc1c[nH]c2ccccc12)NC(=O)[C@H](CO)NC(C)=O)[C@@H](C)O)C(=O)N[C@@H](CCC(=O)O)C(=O)N[C@@H](CC(N)=O)C(=O)N[C@@H](Cc1ccc(O)cc1)C(=O)N[C@H](C(=O)N[C@@H](CCCCN)C(=O)N[C@@H](CCC(N)=O)C(=O)N[C@H](C(=O)N[C@@H](Cc1ccc(O)cc1)C(=O)N[C@@H](CCCCN)C(=O)N[C@H](C(=O)N[C@@H](CC(C)C)C(=O)N[C@@H](CCC(=O)O)C(=O)N[C@@H](CCC(=O)O)C(=O)N[C@@H](CO)C(=O)N[C@@H](CCC(N)=O)C(=O)N[C@@H](CCC(=O)O)C(=O)N[C@@H](CCC(N)=O)C(=O)N[C@@H](CCC(N)=O)C(=O)N[C@@H](CC(=O)O)C(=O)N[C@@H](CCCNC(=N)N)C(=O)N[C@@H](CC(N)=O)C(=O)N[C@@H](CCC(=O)O)C(=O)N[C@@H](CCCCN)C(=O)N[C@@H](CC(=O)O)C(=O)N[C@@H](CC(C)C)C(=O)N[C@@H](CC(C)C)C(=O)N[C@@H](CCC(=O)O)C(N)=O)[C@@H](C)CC)[C@@H](C)CC)[C@@H](C)O [Fusonex] (Ac-SWETWEREIENYTKQIYKILEESQEQQDRNEKDLLE-NH2)		1.2 ± 0.2	better inhibiting activity than T-20	higher than that of T-20; also recorded: more stable than T-20	70
